These results are taken from ChEMBL document CHEMBL1134202, “Selectivity of inhibition of matrix metalloproteases MMP-3 and MMP-2 by succinyl hydroxamates and their carboxylic acid analogues is dependent on P3' group chirality” (Bioorg Med Chem Lett, 2001).

In test [1] the target is Matrix metalloproteinase-9 (Homo sapiens, UniProt P14780).
The target of test [2] is Matrix metalloproteinase-14 (Homo sapiens, UniProt P50281).
The next test deals with Stromelysin-1 (Homo sapiens, UniProt P08254).
Stromelysin-1, sequence (P08254 whole entry): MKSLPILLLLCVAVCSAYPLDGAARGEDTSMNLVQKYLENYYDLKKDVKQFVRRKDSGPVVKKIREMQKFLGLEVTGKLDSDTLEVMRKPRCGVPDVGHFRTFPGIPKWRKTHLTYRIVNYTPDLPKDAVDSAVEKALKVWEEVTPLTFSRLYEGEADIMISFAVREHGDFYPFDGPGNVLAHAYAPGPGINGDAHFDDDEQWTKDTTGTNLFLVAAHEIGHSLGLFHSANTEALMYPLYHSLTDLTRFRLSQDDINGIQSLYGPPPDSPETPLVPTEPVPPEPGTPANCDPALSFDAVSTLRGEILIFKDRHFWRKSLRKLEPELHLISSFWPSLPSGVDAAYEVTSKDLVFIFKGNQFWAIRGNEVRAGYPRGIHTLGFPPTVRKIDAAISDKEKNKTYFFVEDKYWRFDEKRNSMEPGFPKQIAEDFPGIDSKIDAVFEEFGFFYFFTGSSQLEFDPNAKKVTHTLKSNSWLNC

Structures are written as SMILES. pIC50, pKi: −log10 of the molar value.

Matrix metalloproteinase-9, sequence (P14780 whole entry): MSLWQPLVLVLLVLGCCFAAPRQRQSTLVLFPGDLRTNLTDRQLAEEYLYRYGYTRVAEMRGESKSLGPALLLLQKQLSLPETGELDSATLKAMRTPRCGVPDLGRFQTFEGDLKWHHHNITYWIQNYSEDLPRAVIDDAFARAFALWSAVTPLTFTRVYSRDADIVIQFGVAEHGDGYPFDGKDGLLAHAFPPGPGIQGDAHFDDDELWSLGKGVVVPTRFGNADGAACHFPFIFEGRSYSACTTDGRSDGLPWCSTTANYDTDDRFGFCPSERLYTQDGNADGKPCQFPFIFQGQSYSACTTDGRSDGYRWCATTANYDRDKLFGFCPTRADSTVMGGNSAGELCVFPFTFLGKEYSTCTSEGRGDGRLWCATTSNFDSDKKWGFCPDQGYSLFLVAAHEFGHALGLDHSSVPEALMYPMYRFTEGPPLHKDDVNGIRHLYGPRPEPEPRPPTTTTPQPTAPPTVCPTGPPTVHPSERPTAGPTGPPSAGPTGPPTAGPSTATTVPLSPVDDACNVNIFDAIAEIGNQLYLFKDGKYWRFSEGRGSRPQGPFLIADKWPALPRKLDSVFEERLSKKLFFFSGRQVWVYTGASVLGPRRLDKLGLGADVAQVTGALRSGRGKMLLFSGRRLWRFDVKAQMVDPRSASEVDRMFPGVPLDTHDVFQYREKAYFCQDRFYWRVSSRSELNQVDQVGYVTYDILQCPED

As a reminder, the pIC50 is −log10 of the IC50, conventionally taken in molar units. High values mean a small IC50, low ones a large IC50. For `CNC(=O)[C@H](Cc1ccccc1)NC(=O)[C@H](CC(C)C)[C@H](CSc1cccs1)C(=O)NO` [BATIMASTAT], the pIC50 in test [1] was 9.17; in test [2] it was 8.54.
For orientation: pKi means the Ki on a negative log10 scale, so that one unit is a factor of ten. Lower therefore signals a large Ki. Molecule `CNC(=O)[C@H](Cc1c[nH]c2ccccc12)NC(=O)[C@@H](CC(=O)NO)CC(C)C` [ILOMASTAT] had a negative logarithm of the Ki (pKi) at Stromelysin-1 of 7.59.
